Active and inactive are the calls of the source.
Key:
cells [1] = format: functional, cell-based
cells [2] = format: functional, cell-based; remark: listed apart in the source
[3] = cytotoxicity in HEK-293T cells, dose response, cytotoxicity control for TCR NF-kB inhibitor project, luminescence, T-cell screen hits (AID 489026); format: functional, cell-based;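 further: cells exposed to compound about 14 hours before the viability readout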
HEK293 = assay: SAR Analysis of small molecule inhibitors of T-cell specific antigen receptor-induced NF-kB activation in a HEK-293T cell line using a luminescence assay - Set 2. [Related pubchem assays (depositor defined):AID435003, AID435012, AID489026]; format: functional, cell-based; settings: Homo sapiens
[4] = Shn3 3'UTR reporter inhibitors, dose response, cell-based, Clone20 osteoblasts, firefly luciferase, cherry-picked (AID 624132); format: functional;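 further: firefly luciferase luminescence from reporter carrying the Shn3 3'UTR in osteoblasts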
[5] = control 3'UTR Renilla luciferase suppression, dose response, counter-screen for Shn3 inhibitor project, cell-based, Clone20-Shn3RL, cherry-picked (AID 624133); format: functional
[6] = molecular target: Cystic fibrosis transmembrane conductance regulator/Golgi-associated PDZ and coiled-coil motif-containing protein (Homo sapiens, UniProt P13569+Q9HD26); assay: CAL PDZ peptide-binding inhibitors, dose response, biochemical, fluorescence polarization, Cerulean-tagged CAL PDZ, cherry-picks (AID 504773)
Insulin-degrading enzyme = molecular target: T1, Insulin-degrading enzyme (Homo sapiens, UniProt P14735); assay: activators of endogenous IDE in HEK cells, dose response, cell-based, fluorescence polarization (AID 588439); format: functional
T1 sequence (P14735 whole entry): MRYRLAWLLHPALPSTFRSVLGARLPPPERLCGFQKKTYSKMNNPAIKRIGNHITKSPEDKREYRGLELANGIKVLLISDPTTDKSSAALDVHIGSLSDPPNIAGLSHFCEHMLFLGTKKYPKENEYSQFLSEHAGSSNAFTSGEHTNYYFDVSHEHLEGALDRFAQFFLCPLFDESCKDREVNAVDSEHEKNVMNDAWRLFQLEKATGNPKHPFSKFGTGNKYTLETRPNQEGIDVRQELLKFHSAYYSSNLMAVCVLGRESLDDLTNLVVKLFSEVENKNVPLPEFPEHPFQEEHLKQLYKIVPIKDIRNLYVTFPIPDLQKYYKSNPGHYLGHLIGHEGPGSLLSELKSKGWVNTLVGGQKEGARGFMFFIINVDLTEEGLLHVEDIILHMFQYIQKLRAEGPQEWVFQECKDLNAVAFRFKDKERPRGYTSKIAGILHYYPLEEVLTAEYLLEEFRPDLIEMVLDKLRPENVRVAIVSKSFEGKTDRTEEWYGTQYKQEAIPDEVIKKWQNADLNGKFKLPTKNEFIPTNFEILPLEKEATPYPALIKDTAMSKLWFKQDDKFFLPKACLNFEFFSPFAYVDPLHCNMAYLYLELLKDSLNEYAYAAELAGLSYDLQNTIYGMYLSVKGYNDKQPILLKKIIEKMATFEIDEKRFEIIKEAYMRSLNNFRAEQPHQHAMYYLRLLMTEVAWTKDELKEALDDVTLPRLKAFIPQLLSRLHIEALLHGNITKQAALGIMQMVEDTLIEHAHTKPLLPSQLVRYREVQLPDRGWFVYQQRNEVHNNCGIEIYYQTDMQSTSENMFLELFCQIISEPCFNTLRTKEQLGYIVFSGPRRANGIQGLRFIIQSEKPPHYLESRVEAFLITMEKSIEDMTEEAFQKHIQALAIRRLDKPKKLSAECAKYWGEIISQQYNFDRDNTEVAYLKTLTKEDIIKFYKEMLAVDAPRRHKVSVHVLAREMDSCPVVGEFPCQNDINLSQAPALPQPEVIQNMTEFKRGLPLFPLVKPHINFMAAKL

[7] = Counterscreen for activators of the function of SWI/SNF related, matrix associated, actin dependent regulator of chromatin, subfamily a, member 2 (SMARCA2, BRM): Luminescence-based cell-based high throughput dose response assay to identify non-selective compounds using the VP16 reporter assay.; format: functional
[8] = molecular target: Histone-lysine N-methyltransferase NSD2 (Homo sapiens, UniProt O96028); format: biochemical
Streptokinase A = molecular target: T2, Streptokinase A (Streptococcus pyogenes serotype M1, UniProt P10520); assay: S. pyogenes streptokinase expression inhibitors, potency, dose response, plasminogen activation absorbance, OD405 (AID 1914); format: functional, Streptococcus pyogenes M1 GAS;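 further: secreted streptokinase activity via plasminogen activation per viability signal from cell pellet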
T2 sequence (P10520 whole entry): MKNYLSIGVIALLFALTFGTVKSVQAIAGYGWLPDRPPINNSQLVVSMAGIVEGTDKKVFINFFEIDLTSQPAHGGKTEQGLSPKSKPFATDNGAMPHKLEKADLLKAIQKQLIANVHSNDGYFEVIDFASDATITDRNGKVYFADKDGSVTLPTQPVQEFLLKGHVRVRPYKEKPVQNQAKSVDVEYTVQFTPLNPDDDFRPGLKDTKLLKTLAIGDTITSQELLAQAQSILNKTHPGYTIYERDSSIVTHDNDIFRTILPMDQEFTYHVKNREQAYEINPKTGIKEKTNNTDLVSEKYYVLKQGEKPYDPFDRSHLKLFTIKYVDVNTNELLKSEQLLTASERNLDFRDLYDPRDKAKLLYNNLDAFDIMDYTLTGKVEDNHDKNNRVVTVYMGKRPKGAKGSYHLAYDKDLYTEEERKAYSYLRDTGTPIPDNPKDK

Caspase-3 = molecular target: T3, Caspase-3 (Homo sapiens, UniProt P42574); assay: procaspase-3 activators, dose response, biochemical, absorbance (AID 489014)
T3 sequence (P42574 whole entry): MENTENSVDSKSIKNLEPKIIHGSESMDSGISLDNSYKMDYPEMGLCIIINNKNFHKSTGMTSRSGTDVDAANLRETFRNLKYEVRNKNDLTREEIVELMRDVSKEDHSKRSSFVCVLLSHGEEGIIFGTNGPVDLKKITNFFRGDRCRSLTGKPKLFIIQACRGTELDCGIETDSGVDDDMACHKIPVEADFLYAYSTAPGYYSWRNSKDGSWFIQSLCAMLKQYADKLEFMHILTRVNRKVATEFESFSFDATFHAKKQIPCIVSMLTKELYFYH

Caspase-7 = Caspase-7 (Homo sapiens, UniProt P55210); assay: procaspase-7 activators, dose response, counter-screen for procaspase-3 activator project, biochemical, absorbance (AID 489013)
Chain of Caspase-7 (P55210 24-198 limits assumed): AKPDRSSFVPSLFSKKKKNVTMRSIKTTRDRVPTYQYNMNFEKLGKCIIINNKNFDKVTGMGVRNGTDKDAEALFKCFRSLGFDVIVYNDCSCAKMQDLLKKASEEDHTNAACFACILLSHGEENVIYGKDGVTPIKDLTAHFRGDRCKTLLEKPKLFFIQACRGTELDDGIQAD
Chain of Caspase-7 (P55210 207-303 limits assumed): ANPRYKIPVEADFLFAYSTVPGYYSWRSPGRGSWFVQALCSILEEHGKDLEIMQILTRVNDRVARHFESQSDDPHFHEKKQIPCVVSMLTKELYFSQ

Chain of Cystic fibrosis transmembrane conductance regulator/Golgi-associated PDZ and coiled-coil motif-containing protein (P13569 whole entry, other chains not shown): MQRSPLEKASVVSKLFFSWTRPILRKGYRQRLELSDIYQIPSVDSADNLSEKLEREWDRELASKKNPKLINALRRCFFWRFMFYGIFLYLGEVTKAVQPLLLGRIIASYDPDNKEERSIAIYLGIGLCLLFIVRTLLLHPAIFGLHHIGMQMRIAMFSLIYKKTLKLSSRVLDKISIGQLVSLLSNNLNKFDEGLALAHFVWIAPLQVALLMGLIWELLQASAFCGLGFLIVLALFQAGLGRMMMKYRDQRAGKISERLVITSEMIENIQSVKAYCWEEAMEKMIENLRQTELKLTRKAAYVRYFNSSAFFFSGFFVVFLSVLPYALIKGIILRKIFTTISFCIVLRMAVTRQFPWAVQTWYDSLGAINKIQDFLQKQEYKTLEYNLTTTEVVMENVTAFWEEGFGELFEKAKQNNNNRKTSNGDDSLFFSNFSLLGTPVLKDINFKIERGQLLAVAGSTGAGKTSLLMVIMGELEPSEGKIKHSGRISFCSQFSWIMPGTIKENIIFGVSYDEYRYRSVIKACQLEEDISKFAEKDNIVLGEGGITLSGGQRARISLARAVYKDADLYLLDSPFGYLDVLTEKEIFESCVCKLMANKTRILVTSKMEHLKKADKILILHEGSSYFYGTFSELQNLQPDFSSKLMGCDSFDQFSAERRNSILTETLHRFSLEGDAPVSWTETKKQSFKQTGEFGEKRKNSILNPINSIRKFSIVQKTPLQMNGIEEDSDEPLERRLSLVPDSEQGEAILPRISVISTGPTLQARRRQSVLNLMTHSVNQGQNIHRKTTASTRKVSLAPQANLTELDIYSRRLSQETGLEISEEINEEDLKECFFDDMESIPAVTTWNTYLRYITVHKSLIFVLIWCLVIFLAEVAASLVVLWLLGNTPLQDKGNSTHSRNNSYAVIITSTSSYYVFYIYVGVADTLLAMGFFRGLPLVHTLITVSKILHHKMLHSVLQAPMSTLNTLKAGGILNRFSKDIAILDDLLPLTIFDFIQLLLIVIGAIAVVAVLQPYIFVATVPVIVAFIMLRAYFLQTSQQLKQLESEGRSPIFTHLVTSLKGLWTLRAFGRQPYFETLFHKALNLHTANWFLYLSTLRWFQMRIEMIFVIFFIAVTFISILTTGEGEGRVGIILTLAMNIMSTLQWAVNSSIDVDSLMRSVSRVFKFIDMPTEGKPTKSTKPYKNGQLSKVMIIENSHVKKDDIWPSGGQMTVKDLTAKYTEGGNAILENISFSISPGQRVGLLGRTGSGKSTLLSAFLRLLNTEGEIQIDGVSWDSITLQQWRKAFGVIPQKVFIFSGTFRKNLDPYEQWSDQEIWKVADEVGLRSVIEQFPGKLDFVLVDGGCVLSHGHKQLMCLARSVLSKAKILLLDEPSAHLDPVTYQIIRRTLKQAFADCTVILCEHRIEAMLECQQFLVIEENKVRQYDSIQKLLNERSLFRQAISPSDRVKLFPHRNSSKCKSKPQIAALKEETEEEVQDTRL
Chain of Histone-lysine N-methyltransferase NSD2 (O96028 whole entry): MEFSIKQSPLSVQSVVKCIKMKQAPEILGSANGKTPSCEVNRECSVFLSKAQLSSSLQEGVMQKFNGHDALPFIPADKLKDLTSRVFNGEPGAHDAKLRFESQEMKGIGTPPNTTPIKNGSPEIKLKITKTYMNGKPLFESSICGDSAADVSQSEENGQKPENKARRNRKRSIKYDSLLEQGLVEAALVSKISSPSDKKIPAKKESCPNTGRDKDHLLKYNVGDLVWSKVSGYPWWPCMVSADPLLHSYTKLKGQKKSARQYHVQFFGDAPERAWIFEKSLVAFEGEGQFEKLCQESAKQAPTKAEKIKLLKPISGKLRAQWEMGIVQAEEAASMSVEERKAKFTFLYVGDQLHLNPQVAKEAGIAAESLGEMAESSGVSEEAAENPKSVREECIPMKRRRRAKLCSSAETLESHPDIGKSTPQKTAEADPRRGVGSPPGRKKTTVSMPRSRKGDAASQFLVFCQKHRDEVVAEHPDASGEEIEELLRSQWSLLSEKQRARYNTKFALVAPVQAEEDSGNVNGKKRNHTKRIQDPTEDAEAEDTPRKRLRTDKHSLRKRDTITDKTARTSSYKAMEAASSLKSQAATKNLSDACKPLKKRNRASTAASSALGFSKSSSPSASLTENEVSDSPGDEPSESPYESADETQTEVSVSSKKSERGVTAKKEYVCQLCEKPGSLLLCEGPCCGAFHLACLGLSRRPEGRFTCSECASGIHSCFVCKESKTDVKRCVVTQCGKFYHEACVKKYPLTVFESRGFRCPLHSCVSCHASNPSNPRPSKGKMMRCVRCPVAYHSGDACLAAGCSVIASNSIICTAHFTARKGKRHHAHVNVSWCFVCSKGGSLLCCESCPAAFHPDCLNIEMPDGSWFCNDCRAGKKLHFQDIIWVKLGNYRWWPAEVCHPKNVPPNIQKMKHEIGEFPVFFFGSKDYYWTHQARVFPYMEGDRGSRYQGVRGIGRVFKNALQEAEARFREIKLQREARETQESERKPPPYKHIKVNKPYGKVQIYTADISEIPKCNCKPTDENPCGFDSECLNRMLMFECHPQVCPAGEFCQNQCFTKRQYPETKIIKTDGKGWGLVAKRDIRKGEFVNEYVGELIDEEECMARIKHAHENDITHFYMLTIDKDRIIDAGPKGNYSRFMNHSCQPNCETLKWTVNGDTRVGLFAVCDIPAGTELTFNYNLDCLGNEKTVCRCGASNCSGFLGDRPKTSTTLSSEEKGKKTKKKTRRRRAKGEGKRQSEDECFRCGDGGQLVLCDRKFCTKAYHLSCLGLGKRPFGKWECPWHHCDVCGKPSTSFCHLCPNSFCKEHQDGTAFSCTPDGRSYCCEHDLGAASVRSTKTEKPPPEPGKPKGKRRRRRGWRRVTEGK

CCCCC(=O)NC(c1ccc(Cl)cc1)c1ccc2cccnc2c1O (stereo not drawn)
EC50 (cells [1]): 3.81 µM (active) | EC50 (cells [2]): 59.9 µM (active) | IC50 [3]: > 80 µM (inactive) | IC50 (HEK293): 4.57 µM (active) | AC50 [4]: 0.772 µM (active) | AC50 [5]: 0.909 µM (active)

COc1ccc2noc3c2c1C(=O)c1ccccc1-3
AC50 [6]: > 500 µM (inactive) | EC50 (Insulin-degrading enzyme): > 54.7 µM (inactive) | EC50 [7]: > 91.2 µM (inactive) | AC50 [8]: > 20 µM (inactive)

O=C(N/N=C/c1ccccc1O)/C(O)=C\C1=NC2(CCCC2)Cc2ccccc21
EC50 (Streptokinase A): > 150 µM (not active) | EC50 (Caspase-3): > 85.3 µM (inactive) | EC50 (Caspase-7): > 85.3 µM (inactive)
